What all share (format): cell-based
The test system of one experiment is IL-1β. As to the kind of experiment: PBMC assay, LPS-induced IL-1β (Meso Scale). The conditions noted are these: Homo sapiens, PBMCs, 100 ng/mL LPS 18-24 hrs; for inhibition at 0.1 µM: compound at 0.1 μM; for inhibition at 1 µM: compound at 1 μM. The method, then:
FIG. 1 represents the activity against IL-1-beta in peripheral blood mononuclear cells (PBMCs), plated in 96 well plates and pretreated with compound for 1 hour and then induced with 100 ng/mL LPS for 18-24 hrs. Cytokines in the media were measured according to MesoScale protocol. Negative control wells were treated with DMSO. Compound activity is measured as a percentage of LPS-induced activity.
(§1) Frozen primary blood mononuclear cells (PBMCs) were purchased from AllCells. Cells were quick thawed, washed once with RPMI-1640/10% FBS.
(§2) 1% Penicillin/1% Streptomycin and plated in 96 well plates at 200,000 cells per well. Cells were pretreated with DMSO only, or Compound 1 for 1 hour and then induced with 100 ng/mL lipopolysaccharide (LPS) for 18-24 hrs. The supernatant was analyzed for IL-1 beta, IL-6, and TNFα, using Meso Scale assay according to manufacturer's protocol. The negative control wells were treated with DMSO.
(§3) Compound activity was measured as fold difference from the DMSO control. IL-1β activity is shown in FIG. 1; IL-6 activity is shown in FIG. 2; TNFα activity is shown in FIG. 3; and IL-2 activity is shown in FIG. 4. Additional data for compounds (shown as percent inhibition) at 10 μM is shown in Table 1; at 1 μM in Table 2; and at 0.1 μM in Table 3.

A further experiment concerns IL-6. As to the kind of experiment: PBMC assay, LPS-induced IL-6 (Meso Scale). The following applies: Homo sapiens, PBMCs, 100 ng/mL LPS 18-24 hrs; for inhibition at 0.1 µM: compound at 0.1 μM; for inhibition at 1 µM: compound at 1 μM. The method, then:
FIG. 2 represents the activity against IL-6 in peripheral blood mononuclear cells (PBMCs), plated in 96 well plates and pretreated with compound for 1 hour and then induced with 100 ng/mL LPS for 18-24 hrs. Cytokines were measured according to MesoScale protocol. Negative control wells were treated with DMSO. Compound activity was measured as a percentage of LPS-induced activity.
as §1, §2, §3

A further experiment concerns TNFα. As to the kind of experiment: PBMC assay, LPS-induced TNFα (Meso Scale). The conditions noted are these: Homo sapiens, PBMCs, 100 ng/mL LPS 18-24 hrs; for inhibition at 0.1 µM: compound at 0.1 μM; for inhibition at 1 µM: compound at 1 μM. How it is done: FIG. 3 represents the activity against TNFα in peripheral blood mononuclear cells (PBMCs), plated in 96 well plates and pretreated with compound for 1 hour and then induced with 100 ng/mL LPS for 18-24 hrs. Cytokines in the media were measured according to MesoScale protocol. The negative control wells were treated with DMSO. Compound activity is measured as a percentage of LPS-induced activity.
as §1, §2, §3

Another experiment relates to IL-2. Kind of experiment: Anti-CD3-induced IL-2 secretion in PBMCs (Mesoscale). The conditions noted are these: Homo sapiens, PBMC, anti-CD3 stimulated PBMCs, 24 hr, vs DMSO control, read-out: IL-2 Fold Change; for fold induction at 0.1 µM: compound at 0.1 μM; for fold induction at 1 µM: compound at 1 μM. The method, then: FIG. 4 represents Anti-CD3-induced IL-2 secretion in PBMCs. 1 μg/mL anti-CD3 (OKT-3) antibody in PBS coated onto 96-well plates overnight at 4° C. Approximately, 550,000 PBMCs were added to each well, followed by addition of DMSO only (control) or Compound 1. Induction was measured after 24 hrs as fold difference from the DMSO stimulated control.
as §1
For the IL-2 analysis, 96 well plates were precoated with 1 μg/mL anti-human CD3 antibody (OKT3, eBioscience Inc.). After washing with PBS, Compound 1 was added (50 μL/well) followed by PBMCs diluted at 3-4 million cells/mL (150 μL/well). Plates were incubated for 24 hr and the supernatants collected for Mesoscale IL-2 analysis.
as §3

The next experiment concerns Molm-13 cells. Kind of experiment: Cell viability assay (CellTiter-Glo), Molm-13 proliferation. The following applies: Homo sapiens, MOLM-13, 72 h, 3 days; for inhibition at 1 µM: compound at 1 μM; for inhibition at 10 µM: compound at 10 μM. How it is done: (§4) Molm-13 and MV-4-11 cells were cultivated in RPMI-1640 (10% FBS/1% pen-strep) and were plated in white walled 96-well plates at 20,000 cells/well.
(§5) Cells were treated with compound at the indicated concentration or DMSO (control) and the cultures were incubated for 3 days at 37° C. and 5% CO2. Following the incubation period, 100 μL of CellTiterGlow (CTG) reagent (CellTiter-Glo® Luminescent Cell Viability Assay, Promega (Madison, Wis.)) was added to each well. Following a 10 min incubation with shaking, luminescence was measured using a Victor Wallac Luminometer.

The test system of another experiment is MV-4-11 cells. Kind of experiment: Cell viability assay (CellTiter-Glo), MV-4-11 proliferation. The conditions noted are these: Homo sapiens, MV4-11, 72 h, 3 days; for inhibition at 1 µM: compound at 1 μM; for inhibition at 10 µM: compound at 10 μM. How it is done: as §4, §5
Background: ATP-based viability assays read luminescence as a measure of living cells.

As usually defined, the inhibition is the share of the control response that was lost under treatment. A high value points to a response far below the control.

In the case of `O=C1CCC[C@H](N2Cc3c(OCc4ccc(CN5CCOCC5)c(Cl)c4)cccc3C2=O)C(=O)N1` [Compound 3], the inhibition at 0.1 µM in the experiment on IL-1β turned out to be 91%; with IL-6, 72%; in the experiment on TNFα, 91%. Also, the inhibition at 1 µM with IL-1β came to 93%; with IL-6 it was 79%; in the experiment with TNFα, 93%; with Molm-13 cells it was 1%; in the experiment on MV-4-11 cells, 0%. Besides, the inhibition at 10 µM in the experiment with IL-1β (compound at 10 μM) came to 93%; in the experiment with IL-6 (compound at 10 μM), 77%; with TNFα (compound at 10 μM), 94%; in the experiment with Molm-13 cells it was 29%; with MV-4-11 cells, 20%. The fold induction at 0.1 µM in the experiment with IL-2 is 2. In the experiment with IL-2, the fold induction at 1 µM amounted to 0.7.
As to `Cc1cnc(Nc2ccc(OCCCNCC(=O)NCc3ccc(COc4cccc5c4CN([C@H]4CCCC(=O)NC4=O)C5=O)cc3)cc2)nc1Nc1cccc(S(=O)(=O)NC(C)(C)C)c1` [Compound 6], the inhibition at 0.1 µM in the experiment on IL-1β amounted to 68%; in the experiment with IL-6 it was 42%; in the experiment on TNFα it was 62%. Moreover, the inhibition at 1 µM in the experiment with IL-1β is 92%; in the experiment with IL-6, 76%; with TNFα, 83%; in the experiment on MV-4-11 cells, 0%. For the same compound, in the experiment with IL-2, the fold induction at 0.1 µM was found to be 1. In addition, the fold induction at 1 µM in the experiment on IL-2 came out at 2.5. Further, the inhibition at 10 µM is 91% in the experiment with Molm-13 cells and 76% in the experiment on MV-4-11 cells.
For `O=C1CCC[C@H](N2Cc3c(OCc4ccc(CN5CCOCC5)cc4)cccc3C2=O)C(=O)N1` [Compound 1, (S)-3-(4-((4-(morpholinomethyl)benzyl)oxy)-1-oxoisoindolin-2-yl)azepane-2,7-dione], the inhibition at 0.1 µM in the experiment with IL-1β was 83%; in the experiment with IL-6 it was 63%; in the experiment with TNFα, 89%; in the experiment with Molm-13 cells (compound at 0.1 μM) it was 30%. The inhibition at 1 µM with IL-1β came to 88%; in the experiment with IL-6, 71%; with TNFα it was 93%; in the experiment with Molm-13 cells, 15%; in the experiment on MV-4-11 cells, 2%. Moreover, in the experiment on IL-2, the fold induction at 0.1 µM turned out to be 2.1. In addition, the fold induction at 1 µM with IL-2 was 0.8. The inhibition at 10 µM is 37% with Molm-13 cells and 5% in the experiment with MV-4-11 cells.

These data come from patent US10927104B2, “Ether compounds and uses thereof” (BioTheryX, Inc., priority 2017, dated 2021).
